Test results as given in US7105229B2, “Coated particles, methods of making and using” (priority 1997, dated 2006).

Assay: Solubilization of Paclitaxel in nanostructured phase interior
Assay type: physicochemical
Method: A nanostructured liquid phase containing the antineoplastic drug Paclitaxel was prepared by solubilizing 0.045 grams of Paclitaxel, 0.57 grams of eugenol, […] of soy lecithin (Epikuron 200), 0.33 grams of glycerol, and 0.06 grams of cupric nitrate with 0.61 grams of methanol, and then evaporating off the methanol in an evaporating dish, with stirring during evaporation. An glycerol-rich upper solution was prepared by dissolving 0.09 grams of potassium iodide, 0.05 grams of Pluronic F-68, 0.44 grams of water and 1.96 grams of glycerol. After overlaying the upper phase, the system was sonicated, resulting in the dispersing of Paclitaxel-containing, nanostructured liquid phase into microparticles coated with crystalline iodine. […] The loading of Paclitaxel in the particle interior was quite high, namely on the order of 3 wt %, which in this case was so high that precipitation of some of the Paclitaxel within the interior of each particle may occur since the solubilization of Paclitaxel in this cubic phase at this high loading was metastable. […]

**Q.** Which “concentration of Paclitaxel in the interior at which solubilization is truly stable (thermodynamic equilibrium)” value (eugenol/soy lecithin/glycerol nanostructured phase of Example 36) does the source give for CC(=O)O[C@H]1C(=O)[C@@]2(C)[C@H]([C@H](OC(=O)c3ccccc3)[C@]3(O)C[C@H](OC(=O)[C@H](O)[C@@H](NC(=O)c4ccccc4)c4ccccc4)C(C)=C1C3(C)C)[C@]1(OC(C)=O)CO[C@@H]1C[C@@H]2O [Paclitaxel] here?
**A.** ≤ 0.7%

**Q.** What about the “time taken for precipitation of Paclitaxel at metastable loading” value (loading on the order of 3 wt % of interior) of the same compound?
**A.** hours or even days
